Results on one molecule are retold here after patent US6413980B1, “Nitrogen containing heterobicycles as factor Xa inhibitors” (Bristol-Myers Squibb Pharma Company, priority 1998, dated 2002).

Each structure is given as a SMILES string. Structures can show the parent of a compound that is named as a salt.

Molecule `Cc1nn(-c2cccc(CN)c2)c2c1CCN(c1ccc(-c3ccccc3CN3CC[C@H](O)C3)cc1)C2` (as salt: trifluoroacetic acid salt) [Example 100, 1-[3-Aminomethylphenyl]-3-methyl-6-[(2′-N-((3-(S)-hydroxy)pyrrolidinyl)methyl-[1,1′]-biphen-4-yl)]-1,4,5,6-tetrahydro-7H-pyrazolo-[3,4-c]-pyridin-7-one bis-trifluoroacetic acid salt] registered a melting point of 79.2 °C.
